Experimental data published in patent US20230085307A1, “PYRIDAZINONE COMPOUND AND HERBICIDE” (NISSAN CHEMICAL CORPORATION, priority 2019, published 2023).

Assays:
Japanese bulrush = test: Test Example 1: herbicidal activity, application before weed generation under submerged conditions (Table 16, symbol B); assay type: in vivo, Japanese bulrush (Schoenoplectus juncoides)
In short: (§1)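 Emulsion formulation, water-diluted to set dose, was put onto the flooded surface (4 cm depth, alluvial soil) the same day weeds were sown and 2.5-leaf rice transplanted. After 3 weeks at 25-30 °C under glass, each species was rated 0 (≤5% kill) to 5 (≥90% kill).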

oval-leafed pondweed = test: Test Example 1: herbicidal activity, application before weed generation under submerged conditions (Table 16, symbol C); assay type: in vivo, oval-leafed pondweed (Monochoria vaginalis)
In short: as §1

blackgrass [1] = test: Test Example 4: herbicidal effect by soil treatment (Table 19, symbol J); assay type: in vivo, blackgrass (Alopecurus myosuroides)
In short: (§2)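 Scoring uses the grading scale of an earlier test, three weeks post-application. Treatment consists of spraying a diluted emulsion formulation across the surface of sterilized diluvial soil in which seeds are buried near 1.5 cm deep; boxes are kept in a greenhouse between 25° C. and 30° C.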

barnyard grass [2] = test: Test Example 4: herbicidal effect by soil treatment (Table 19, symbol H); assay type: in vivo, barnyard grass (Echinochloa crus-galli)
In short: as §2

redroot pigweed [3] = test: Test Example 4: herbicidal effect by soil treatment (Table 19, symbol N); assay type: in vivo, redroot pigweed (Amaranthus retroflexus)
In short: as §2

barnyard grass [4] = test: Test Example 5: herbicidal effect by foliage application, plastic box (Table 20, symbol H); assay type: in vivo, barnyard grass (Echinochloa crus-galli); settings: foliage application; for H (barnyard grass) herbicidal effect grade: evaluated 3 weeks after application
In short: (§3)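 Post-emergence foliar test in sterilized diluvial soil. Compound applied as water-diluted emulsion at a predetermined rate to 14-day-old plants; evaluation at three weeks.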

wild oat [5] = test: Test Example 5: herbicidal effect by foliage application, plastic box (Table 20, symbol I); assay type: in vivo, wild oat (Avena fatua); settings: foliage application; for I (wild oat) herbicidal effect grade: evaluated 3 weeks after application
In short: as §3

wild oat [6] = test: Test Example 4: herbicidal effect by soil treatment (Table 19, symbol I); assay type: in vivo, wild oat (Avena fatua)
In short: as §2

velvetleaf [7] = test: Test Example 4: herbicidal effect by soil treatment (Table 19, symbol M); assay type: in vivo, velvetleaf (Abutilon theophrasti)
In short: as §2

false cleavers = test: Test Example 4: herbicidal effect by soil treatment (Table 19, symbol Q); assay type: in vivo, false cleavers (Galium spurium)
In short: as §2

velvetleaf [8] = test: Test Example 5: herbicidal effect by foliage application, plastic box (Table 20, symbol M); assay type: in vivo, velvetleaf (Abutilon theophrasti); settings: foliage application; for M (velvetleaf) herbicidal effect grade: evaluated 3 weeks after application
In short: as §3

Chinese sprangletop = test: Test Example 3: herbicidal effect by foliage application, Wagner pot (Table 18, symbol D); assay type: in vivo, chinese sprangletop (Leptochloa chinensis)
In short: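 Plants were sown in alluvial soil held under 0.1–0.5 cm standing water and grown 14 days in a greenhouse at 25–30 °C. An emulsifiable formulation, water-diluted to the set dose, was then sprayed onto the foliage, and effects were scored three weeks later using previously defined criteria.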

southern crabgrass = test: Test Example 4: herbicidal effect by soil treatment (Table 19, symbol F); assay type: in vivo, southern crabgrass (Digitaria ciliaris)
In short: as §2

chickweed = test: Test Example 5: herbicidal effect by foliage application, plastic box (Table 20, symbol P); assay type: in vivo, common chickweed (Stellaria media); settings: foliage application; for P (chickweed) herbicidal effect grade: evaluated 3 weeks after application
In short: as §3

blackgrass [9] = test: Test Example 5: herbicidal effect by foliage application, plastic box (Table 20, symbol J); assay type: in vivo, blackgrass (Alopecurus myosuroides); settings: foliage application; for J (blackgrass) herbicidal effect grade: evaluated 3 weeks after application
In short: as §3

redroot pigweed [10] = test: Test Example 5: herbicidal effect by foliage application, plastic box (Table 20, symbol N); assay type: in vivo, redroot pigweed (Amaranthus retroflexus); settings: foliage application; for N (redroot pigweed) herbicidal effect grade: evaluated 3 weeks after application
In short: as §3

lambsquarters = test: Test Example 4: herbicidal effect by soil treatment (Table 19, symbol O); assay type: in vivo, lambsquarters (Chenopodium album)
In short: as §2

[11] = amount of applied herbicide 320 g/ha
[12] = 320 g/ha, three weeks after application
[13] = amount of applied herbicide 402 g/ha

CCOc1cc(F)ccc1-c1sc2cc(Cl)ccc2c1-c1c(O)c(C)nn(C)c1=O [3-045]
Herbicidal effect, B: Japanese bulrush (Japanese bulrush; [11]): 1 (Herbicidal rate of 5% or more and less than 20%)
Herbicidal effect, C: oval-leafed pondweed (oval-leafed pondweed; [11]): 0 (Herbicidal rate of 5% or less (almost no effect))
J: blackgrass, herbicidal effect grade (blackgrass [1]; [11]): 3 (Herbicidal rate of 40% or more and less than 70%)
H: barnyard grass, herbicidal effect grade (barnyard grass [2]; [11]): 5 (Herbicidal rate of 90% or more (almost completely withered))
N: redroot pigweed, herbicidal effect grade (redroot pigweed [3]; [11]): 3 (Herbicidal rate of 40% or more and less than 70%)
H: barnyard grass, herbicidal effect grade (barnyard grass [4]; [12]): 5 (Herbicidal rate of 90% or more (almost completely withered))
I: wild oat, herbicidal effect grade (wild oat [5]; [12]): 5 (Herbicidal rate of 90% or more (almost completely withered))
I: wild oat, herbicidal effect grade (wild oat [6]; [11]): 0 (Herbicidal rate of 5% or less (almost no effect))
M: velvetleaf, herbicidal effect grade (velvetleaf [7]; [11]): 2 (Herbicidal rate of 20% or more and less than 40%)
Q: false cleavers, herbicidal effect grade (false cleavers; [11]): 4 (Herbicidal rate of 70% or more and less than 90%)
M: velvetleaf, herbicidal effect grade (velvetleaf [8]; [12]): 5 (Herbicidal rate of 90% or more (almost completely withered))
herbicidal effect on Chinese sprangletop (D) (Chinese sprangletop; 320 g/ha): 4 (Herbicidal rate of 70% or more and less than 90%)
F: southern crabgrass, herbicidal effect grade (southern crabgrass; [11]): 5 (Herbicidal rate of 90% or more (almost completely withered))
P: chickweed, herbicidal effect grade (chickweed; [12]): 5 (Herbicidal rate of 90% or more (almost completely withered))
J: blackgrass, herbicidal effect grade (blackgrass [9]; [12]): 4 (Herbicidal rate of 70% or more and less than 90%)
N: redroot pigweed, herbicidal effect grade (redroot pigweed [10]; [12]): 4 (Herbicidal rate of 70% or more and less than 90%)
O: lambsquarters, herbicidal effect grade (lambsquarters; [11]): 4 (Herbicidal rate of 70% or more and less than 90%)

COCCOc1ccc(-c2oc3ccc(F)cc3c2-c2c(O)c(C)nn(C)c2=O)cc1 [9-045]
Herbicidal effect, B: Japanese bulrush (Japanese bulrush; [11]): 5 (Herbicidal rate of 90% or more (almost completely withered))
Herbicidal effect, C: oval-leafed pondweed (oval-leafed pondweed; [11]): 5 (Herbicidal rate of 90% or more (almost completely withered))
J: blackgrass, herbicidal effect grade (blackgrass [1]; [11]): 5 (Herbicidal rate of 90% or more (almost completely withered))
H: barnyard grass, herbicidal effect grade (barnyard grass [2]; [11]): 5 (Herbicidal rate of 90% or more (almost completely withered))
N: redroot pigweed, herbicidal effect grade (redroot pigweed [3]; [11]): 5 (Herbicidal rate of 90% or more (almost completely withered))
H (barnyard grass) herbicidal effect grade (barnyard grass [4]; 320 g/ha): 5 (Herbicidal rate of 90% or more (almost completely withered))
I (wild oat) herbicidal effect grade (wild oat [5]; 320 g/ha): 2 (Herbicidal rate of 20% or more and less than 40%)
I: wild oat, herbicidal effect grade (wild oat [6]; [11]): 0 (Herbicidal rate of 5% or less (almost no effect))
M: velvetleaf, herbicidal effect grade (velvetleaf [7]; [11]): 5 (Herbicidal rate of 90% or more (almost completely withered))
Q: false cleavers, herbicidal effect grade (false cleavers; [11]): 0 (Herbicidal rate of 5% or less (almost no effect))
M (velvetleaf) herbicidal effect grade (velvetleaf [8]; 320 g/ha): 5 (Herbicidal rate of 90% or more (almost completely withered))
Herbicidal effect on D (Chinese sprangletop), foliage application (Chinese sprangletop; [11]): 3 (Herbicidal rate of 40% or more and less than 70%)
F: southern crabgrass, herbicidal effect grade (southern crabgrass; [11]): 5 (Herbicidal rate of 90% or more (almost completely withered))
P (chickweed) herbicidal effect grade (chickweed; 320 g/ha): 5 (Herbicidal rate of 90% or more (almost completely withered))
J (blackgrass) herbicidal effect grade (blackgrass [9]; 320 g/ha): 5 (Herbicidal rate of 90% or more (almost completely withered))
N (redroot pigweed) herbicidal effect grade (redroot pigweed [10]; 320 g/ha): 5 (Herbicidal rate of 90% or more (almost completely withered))
O: lambsquarters, herbicidal effect grade (lambsquarters; [11]): 5 (Herbicidal rate of 90% or more (almost completely withered))

CCCOc1ccc(-c2oc3ccc(C)cc3c2-c2c(O)c(C)nn(C)c2=O)cc1 [9-049]
Herbicidal effect, B: Japanese bulrush (Japanese bulrush; [11]): 5 (Herbicidal rate of 90% or more (almost completely withered))
Herbicidal effect, C: oval-leafed pondweed (oval-leafed pondweed; [11]): 5 (Herbicidal rate of 90% or more (almost completely withered))
J: blackgrass, herbicidal effect grade (blackgrass [1]; [11]): 0 (Herbicidal rate of 5% or less (almost no effect))
H: barnyard grass, herbicidal effect grade (barnyard grass [2]; [11]): 4 (Herbicidal rate of 70% or more and less than 90%)
N: redroot pigweed, herbicidal effect grade (redroot pigweed [3]; [11]): 5 (Herbicidal rate of 90% or more (almost completely withered))
H (barnyard grass) herbicidal effect grade (barnyard grass [4]; 320 g/ha): 5 (Herbicidal rate of 90% or more (almost completely withered))
I (wild oat) herbicidal effect grade (wild oat [5]; 320 g/ha): 0 (Herbicidal rate of 5% or less (almost no effect))
I: wild oat, herbicidal effect grade (wild oat [6]; [11]): 0 (Herbicidal rate of 5% or less (almost no effect))
M: velvetleaf, herbicidal effect grade (velvetleaf [7]; [11]): 3 (Herbicidal rate of 40% or more and less than 70%)
Q: false cleavers, herbicidal effect grade (false cleavers; [11]): 0 (Herbicidal rate of 5% or less (almost no effect))
M (velvetleaf) herbicidal effect grade (velvetleaf [8]; 320 g/ha): 5 (Herbicidal rate of 90% or more (almost completely withered))
Herbicidal effect on D (Chinese sprangletop), foliage application (Chinese sprangletop; [11]): 2 (Herbicidal rate of 20% or more and less than 40%)
F: southern crabgrass, herbicidal effect grade (southern crabgrass; [11]): 4 (Herbicidal rate of 70% or more and less than 90%)
P (chickweed) herbicidal effect grade (chickweed; 320 g/ha): 5 (Herbicidal rate of 90% or more (almost completely withered))
J (blackgrass) herbicidal effect grade (blackgrass [9]; 320 g/ha): 4 (Herbicidal rate of 70% or more and less than 90%)
N (redroot pigweed) herbicidal effect grade (redroot pigweed [10]; 320 g/ha): 5 (Herbicidal rate of 90% or more (almost completely withered))
O: lambsquarters, herbicidal effect grade (lambsquarters; [11]): 4 (Herbicidal rate of 70% or more and less than 90%)

CCCC(=O)Oc1c(C)nn(C)c(=O)c1-c1c(-c2ccc(SCC)cc2)oc2ccc(C)cc12 [9-058]
Herbicidal effect, B: Japanese bulrush (Japanese bulrush; [11]): 5 (Herbicidal rate of 90% or more (almost completely withered))
Herbicidal effect, C: oval-leafed pondweed (oval-leafed pondweed; [11]): 5 (Herbicidal rate of 90% or more (almost completely withered))
J: blackgrass, herbicidal effect grade (blackgrass [1]; [11]): 0 (Herbicidal rate of 5% or less (almost no effect))
H: barnyard grass, herbicidal effect grade (barnyard grass [2]; [11]): 2 (Herbicidal rate of 20% or more and less than 40%)
N: redroot pigweed, herbicidal effect grade (redroot pigweed [3]; [11]): 5 (Herbicidal rate of 90% or more (almost completely withered))
H (barnyard grass) herbicidal effect grade (barnyard grass [4]; 320 g/ha): 4 (Herbicidal rate of 70% or more and less than 90%)
I (wild oat) herbicidal effect grade (wild oat [5]; 320 g/ha): 2 (Herbicidal rate of 20% or more and less than 40%)
I: wild oat, herbicidal effect grade (wild oat [6]; [11]): 0 (Herbicidal rate of 5% or less (almost no effect))
M: velvetleaf, herbicidal effect grade (velvetleaf [7]; [11]): 3 (Herbicidal rate of 40% or more and less than 70%)
Q: false cleavers, herbicidal effect grade (false cleavers; [11]): 0 (Herbicidal rate of 5% or less (almost no effect))
M (velvetleaf) herbicidal effect grade (velvetleaf [8]; 320 g/ha): 5 (Herbicidal rate of 90% or more (almost completely withered))
Herbicidal effect on D (Chinese sprangletop), foliage application (Chinese sprangletop; [11]): 3 (Herbicidal rate of 40% or more and less than 70%)
F: southern crabgrass, herbicidal effect grade (southern crabgrass; [11]): 5 (Herbicidal rate of 90% or more (almost completely withered))
P (chickweed) herbicidal effect grade (chickweed; 320 g/ha): 5 (Herbicidal rate of 90% or more (almost completely withered))
J (blackgrass) herbicidal effect grade (blackgrass [9]; 320 g/ha): 3 (Herbicidal rate of 40% or more and less than 70%)
N (redroot pigweed) herbicidal effect grade (redroot pigweed [10]; 320 g/ha): 5 (Herbicidal rate of 90% or more (almost completely withered))
O: lambsquarters, herbicidal effect grade (lambsquarters; [11]): 5 (Herbicidal rate of 90% or more (almost completely withered))

CCCC(=O)Oc1c(C)nn(C)c(=O)c1-c1c(-c2ccc(SC(C)C)cc2)oc2ccc(C)cc12 [9-060]
Herbicidal effect, B: Japanese bulrush (Japanese bulrush; [13]): 4 (Herbicidal rate of 70% or more and less than 90%)
Herbicidal effect, C: oval-leafed pondweed (oval-leafed pondweed; [13]): 5 (Herbicidal rate of 90% or more (almost completely withered))
J: blackgrass, herbicidal effect grade (blackgrass [1]; [13]): 0 (Herbicidal rate of 5% or less (almost no effect))
H: barnyard grass, herbicidal effect grade (barnyard grass [2]; [13]): 0 (Herbicidal rate of 5% or less (almost no effect))
N: redroot pigweed, herbicidal effect grade (redroot pigweed [3]; [13]): 5 (Herbicidal rate of 90% or more (almost completely withered))
H (barnyard grass) herbicidal effect grade (barnyard grass [4]; 402 g/ha): 3 (Herbicidal rate of 40% or more and less than 70%)
I (wild oat) herbicidal effect grade (wild oat [5]; 402 g/ha): 3 (Herbicidal rate of 40% or more and less than 70%)
I: wild oat, herbicidal effect grade (wild oat [6]; [13]): 0 (Herbicidal rate of 5% or less (almost no effect))
M: velvetleaf, herbicidal effect grade (velvetleaf [7]; [13]): 3 (Herbicidal rate of 40% or more and less than 70%)
Q: false cleavers, herbicidal effect grade (false cleavers; [13]): 0 (Herbicidal rate of 5% or less (almost no effect))
M (velvetleaf) herbicidal effect grade (velvetleaf [8]; 402 g/ha): 5 (Herbicidal rate of 90% or more (almost completely withered))
Herbicidal effect on D (Chinese sprangletop), foliage application (Chinese sprangletop; [13]): 2 (Herbicidal rate of 20% or more and less than 40%)
F: southern crabgrass, herbicidal effect grade (southern crabgrass; [13]): 1 (Herbicidal rate of 5% or more and less than 20%)
P (chickweed) herbicidal effect grade (chickweed; 402 g/ha): 5 (Herbicidal rate of 90% or more (almost completely withered))
J (blackgrass) herbicidal effect grade (blackgrass [9]; 402 g/ha): 1 (Herbicidal rate of 5% or more and less than 20%)
N (redroot pigweed) herbicidal effect grade (redroot pigweed [10]; 402 g/ha): 5 (Herbicidal rate of 90% or more (almost completely withered))
O: lambsquarters, herbicidal effect grade (lambsquarters; [13]): 4 (Herbicidal rate of 70% or more and less than 90%)
